The values that follow are results of earlier work, collected in PMC10795913 (The Journal of Clinical Endocrinology and Metabolism, 2023).

The test system of the series is patients. The note with it: different assays, not directly comparable; cited from earlier work.

For liraglutide, the “ADA incidence in published studies” value is “up to 8.7%”.
